Results: ChEMBL document CHEMBL1909602, “Design and synthesis of novel triazole antifungal derivatives by structure-based bioisosterism” (Eur J Med Chem, 2011)
In brackets after ≈: the same amount, converted by molar mass.

Experiments:
Candida albicans = experiment: Antifungal activity against Candida albicans Y0109 after 24 hrs by serial dilution method; assay type: functional; settings: Y0109, 24 h
Candida tropicalis = experiment: Antifungal activity against Candida tropicalis 087 after 24 hrs by serial dilution method; assay type: functional; settings: Candida tropicalis, 087, 24 h
Candida parapsilosis = experiment: Antifungal activity against Candida parapsilosis ATCC 22019 after 24 hrs by serial dilution method; assay type: functional; settings: Lodderomyces parapsilosis, ATCC 22019, 24 h
Pichia kudriavzevii = experiment: Antifungal activity against Candida krusei ATCC 6258 after 24 hrs by serial dilution method; assay type: functional; settings: ATCC 6258, 24 h
Cryptococcus neoformans = experiment: Antifungal activity against Cryptococcus neoformans 32609 after 72 hrs by serial dilution method; assay type: functional; settings: Cryptococcus neoformans, 32609, 72 h
Aspergillus fumigatus = experiment: Antifungal activity against Aspergillus fumigatus 7544 after 7 days by serial dilution method; assay type: functional; settings: Aspergillus fumigatus, 7544, 168 h
[1] = Hydrophobicity, Log P of the compound; assay type: physicochemical; settings: octanol/water

Row | SMILES | MIC80 (Candida albicans) [µg/mL] | MIC80 (Candida tropicalis) [µg/mL] | MIC80 (Candida parapsilosis) [µg/mL] | MIC80 (Pichia kudriavzevii) [µg/mL] | MIC80 (Cryptococcus neoformans) [µg/mL] | MIC80 (Aspergillus fumigatus) [µg/mL] | logP [1]
1 | Cc1ccc(-n2cnn(CCCN3CCN(CC(O)(Cn4cncn4)c4ccc(F)cc4F)CC3)c2=O)c(C)c1 (racemic) | 1 (≈ 1.81 µM) | 1 (≈ 1.81 µM) | 1 (≈ 1.81 µM) | 1 (≈ 1.81 µM) | 8 (≈ 14.5 µM) | > 64 | 2.65
2 | Cc1ccc(-n2cnn(CCCN3CCN(CC(O)(Cn4cncn4)c4ccc(F)cc4F)CC3)c2=O)cc1Cl (racemic) | 0.0625 (≈ 0.109 µM) | 0.25 (≈ 0.436 µM) | 0.25 (≈ 0.436 µM) | 0.25 (≈ 0.436 µM) | 1 (≈ 1.75 µM) | 4 (≈ 6.98 µM) | 2.91
3 | O=c1n(-c2ccc(Cl)c(Cl)c2)cnn1CCCN1CCN(CC(O)(Cn2cncn2)c2ccc(F)cc2F)CC1 (racemic) | 0.0625 (≈ 0.105 µM) | 0.0625 (≈ 0.105 µM) | 0.25 (≈ 0.421 µM) | 0.25 (≈ 0.421 µM) | 1 (≈ 1.69 µM) | 4 (≈ 6.74 µM) | 3.17
4 | O=c1n(-c2ccc(F)c(Cl)c2)cnn1CCCN1CCN(CC(O)(Cn2cncn2)c2ccc(F)cc2F)CC1 (racemic) | 0.0625 (≈ 0.108 µM) | 0.0625 (≈ 0.108 µM) | 0.25 (≈ 0.433 µM) | 0.25 (≈ 0.433 µM) | 1 (≈ 1.73 µM) | 4 (≈ 6.93 µM) | 2.65
5 | O=c1n(-c2ccccc2)cnn1CCCN1CCN(CC(O)(Cn2cncn2)c2ccc(F)cc2F)CC1 (racemic) | 0.25 (≈ 0.477 µM) | 1 (≈ 1.91 µM) | 1 (≈ 1.91 µM) | 1 (≈ 1.91 µM) | 8 (≈ 15.3 µM) | > 64 | 1.92
6 | OC(Cn1cncn1)(Cn1cncn1)c1ccc(F)cc1F [FLUCONAZOLE] | 0.25 (≈ 0.816 µM) | 0.0625 (≈ 0.204 µM) | 1 (≈ 3.27 µM) | 0.25 (≈ 0.816 µM) | 16 (≈ 52.2 µM) | > 64 | –
7 | O=c1n(-c2cccc(Cl)c2)cnn1CCCN1CCN(CC(O)(Cn2cncn2)c2ccc(F)cc2F)CC1 (racemic) | 0.0625 (≈ 0.112 µM) | 0.0625 (≈ 0.112 µM) | 0.25 (≈ 0.447 µM) | > 64 | 4 (≈ 7.16 µM) | 16 (≈ 28.6 µM) | 2.54
8 | Cc1cc(C)cc(-n2cnn(CCCN3CCN(CC(O)(Cn4cncn4)c4ccc(F)cc4F)CC3)c2=O)c1 (racemic) | 0.25 (≈ 0.452 µM) | 0.25 (≈ 0.452 µM) | 1 (≈ 1.81 µM) | 1 (≈ 1.81 µM) | 4 (≈ 7.24 µM) | 8 (≈ 14.5 µM) | 2.65
9 | CCOc1ccc(-n2cnn(CCCN3CCN(CC(O)(Cn4cncn4)c4ccc(F)cc4F)CC3)c2=O)cc1 (racemic) | 0.25 (≈ 0.44 µM) | 1 (≈ 1.76 µM) | 1 (≈ 1.76 µM) | 1 (≈ 1.76 µM) | 8 (≈ 14.1 µM) | > 64 | 2.25
10 | O=c1n(-c2ccc(Br)cc2)cnn1CCCN1CCN(CC(O)(Cn2cncn2)c2ccc(F)cc2F)CC1 (racemic) | 0.25 (≈ 0.414 µM) | 0.25 (≈ 0.414 µM) | 0.25 (≈ 0.414 µM) | 1 (≈ 1.66 µM) | 4 (≈ 6.63 µM) | 8 (≈ 13.3 µM) | 2.61
11 | Cc1ccc(C)c(-n2cnn(CCCN3CCN(CC(O)(Cn4cncn4)c4ccc(F)cc4F)CC3)c2=O)c1 (racemic) | 0.25 (≈ 0.452 µM) | 0.25 (≈ 0.452 µM) | 1 (≈ 1.81 µM) | 1 (≈ 1.81 µM) | 8 (≈ 14.5 µM) | > 64 | 2.65
12 | O=c1n(-c2ccc(Cl)cc2)cnn1CCCN1CCN(CC(O)(Cn2cncn2)c2ccc(F)cc2F)CC1 (racemic) | 0.0625 (≈ 0.112 µM) | 0.25 (≈ 0.447 µM) | 0.25 (≈ 0.447 µM) | 0.25 (≈ 0.447 µM) | 4 (≈ 7.16 µM) | 8 (≈ 14.3 µM) | 2.54
13 | Cc1ccc(-n2cnn(CCCN3CCN(CC(O)(Cn4cncn4)c4ccc(F)cc4F)CC3)c2=O)cc1C (racemic) | 0.25 (≈ 0.452 µM) | 0.25 (≈ 0.452 µM) | 0.25 (≈ 0.452 µM) | 1 (≈ 1.81 µM) | 4 (≈ 7.24 µM) | 8 (≈ 14.5 µM) | 2.65
14 | Cc1ccc(-n2cnn(CCCN3CCN(CC(O)(Cn4cncn4)c4ccc(F)cc4F)CC3)c2=O)cc1 (racemic) | 0.25 (≈ 0.464 µM) | 0.25 (≈ 0.464 µM) | 1 (≈ 1.86 µM) | 1 (≈ 1.86 µM) | 8 (≈ 14.9 µM) | > 64 | 2.28
15 | O=c1n(-c2ccc(I)cc2)cnn1CCCN1CCN(CC(O)(Cn2cncn2)c2ccc(F)cc2F)CC1 (racemic) | 0.25 (≈ 0.384 µM) | 0.25 (≈ 0.384 µM) | 0.25 (≈ 0.384 µM) | 0.25 (≈ 0.384 µM) | 4 (≈ 6.15 µM) | 8 (≈ 12.3 µM) | 2.57
16 | O=c1n(-c2ccc(F)cc2)cnn1CCCN1CCN(CC(O)(Cn2cncn2)c2ccc(F)cc2F)CC1 (racemic) | 0.25 (≈ 0.461 µM) | 0.25 (≈ 0.461 µM) | 1 (≈ 1.84 µM) | > 64 | > 64 | > 64 | 2.02
17 | CC(C)(C)c1ccc(-n2cnn(CCCN3CCN(CC(O)(Cn4cncn4)c4ccc(F)cc4F)CC3)c2=O)cc1 (racemic) | 0.25 (≈ 0.431 µM) | 0.25 (≈ 0.431 µM) | 0.25 (≈ 0.431 µM) | 0.25 (≈ 0.431 µM) | 1 (≈ 1.72 µM) | 1 (≈ 1.72 µM) | 3.59
18 | O=c1n(-c2ccccc2F)cnn1CCCN1CCN(CC(O)(Cn2cncn2)c2ccc(F)cc2F)CC1 (racemic) | 0.25 (≈ 0.461 µM) | 1 (≈ 1.84 µM) | 1 (≈ 1.84 µM) | > 64 | > 64 | > 64 | 2.02
19 | Cc1ccc(-n2cnn(CCCN3CCN(CC(O)(Cn4cncn4)c4ccc(F)cc4F)CC3)c2=O)cc1[N+](=O)[O-] (racemic) | 0.25 (≈ 0.428 µM) | 0.25 (≈ 0.428 µM) | 1 (≈ 1.71 µM) | > 64 | 16 (≈ 27.4 µM) | > 64 | 2.11
20 | Cc1cccc(C)c1-n1cnn(CCCN2CCN(CC(O)(Cn3cncn3)c3ccc(F)cc3F)CC2)c1=O (racemic) | 1 (≈ 1.81 µM) | 0.25 (≈ 0.452 µM) | 4 (≈ 7.24 µM) | 1 (≈ 1.81 µM) | > 64 | > 64 | 2.65
21 | Cc1cccc(-n2cnn(CCCN3CCN(CC(O)(Cn4cncn4)c4ccc(F)cc4F)CC3)c2=O)c1 (racemic) | 0.25 (≈ 0.464 µM) | 0.25 (≈ 0.464 µM) | 1 (≈ 1.86 µM) | 1 (≈ 1.86 µM) | 8 (≈ 14.9 µM) | 8 (≈ 14.9 µM) | 2.28
